Data set [1] relates to DA rats. The note with it: rat, in vivo, iv, 20 mg/kg.
Source text: (§1) Female DA rats (Japan SLC, Inc.) were intravenously administered through the caudal vein with tacrolimus or Example 1, each once in the dosage indicated in Table 4 and Table 5, and an observation of general symptoms was made successively.
In another data set the test system is rats. The note with it: cited from earlier work.
Data set [2] in a line: Blood concentration profile in rats. The format is in vivo. As to conditions: female, SD, whole blood, iv, tacrolimus in rat blood, 5 mg/kg once i.v. caudal vein, Examples: tacrolimus cut out from micelles. From the text: Blood Concentration Profile in Rats
The results for Examples 1 to 4 and tacrolimus are presented in FIG. 3, and the results for Examples 5 to 8 and tacrolimus are presented in FIG. 4.

The test system of data set [3] is DA rats. As to the kind of experiment: Test on single-dose toxicity in rats.
Source text: as §1

For `C=CC[C@@H]1/C=C(\C)C[C@H](C)C[C@H](OC)[C@H]2O[C@@](O)(C(=O)C(=O)N3CCCC[C@H]3C(=O)O[C@H](/C(C)=C/[C@@H]3CC[C@@H](O)[C@H](OC)C3)[C@H](C)[C@@H](O)CC1=O)[C@H](C)C[C@@H]2OC` [Tacrolimus, tacrolimus], the “general symptoms immediately after administration” value in the data set on DA rats [1] is “a prone position, sedation, and a decrease in locomotor activity”. In addition, the “symptoms caused by intravenous administration” value in the data set on rats is given as “slight respiratory distress, a decrease in locomotor activity, a prone position, stereotyped behavior”. In data set [2], the AUC(0-inf) came out at 5400 ng·h/mL, the Cmax came to 2430 ng/mL, the MRT inf came out at 4.12 h and the Tmax was 4.98 min. Besides, in data set [2] (read-out: T½ (converted)), the half-life was 7.51 h. The “cerebral cortex pathology of dead rats” value with DA rats [3] (FIG. 7) was “neuronal vacuolation was recognized”. The lethal dose entry in the data set with DA rats [3] (single i.v. dose, female DA rats) was “lower than 20 mg/kg”. For the same molecule, the death entry in the data set with DA rats [3] (single i.v. dose, tacrolimus 20 and 30 mg/kg, Example 1 20-50 mg/kg in terms of tacrolimus) is reported as “half the animals in each group died”.

The record behind these values is patent US20180334540A1, “Polymeric Derivative Of Macrolide Immunosuppressant” (Nippon Kayaku Kabushiki Kaisha, priority 2015, published 2018).
